Target: T1, Pho1 (free form) (Ipomoea batatas, UniProt P27598)
T1 construct: native, purified from storage roots; 110-kDa band; 220-kDa homodimer
T1 sequence (P27598 44-955): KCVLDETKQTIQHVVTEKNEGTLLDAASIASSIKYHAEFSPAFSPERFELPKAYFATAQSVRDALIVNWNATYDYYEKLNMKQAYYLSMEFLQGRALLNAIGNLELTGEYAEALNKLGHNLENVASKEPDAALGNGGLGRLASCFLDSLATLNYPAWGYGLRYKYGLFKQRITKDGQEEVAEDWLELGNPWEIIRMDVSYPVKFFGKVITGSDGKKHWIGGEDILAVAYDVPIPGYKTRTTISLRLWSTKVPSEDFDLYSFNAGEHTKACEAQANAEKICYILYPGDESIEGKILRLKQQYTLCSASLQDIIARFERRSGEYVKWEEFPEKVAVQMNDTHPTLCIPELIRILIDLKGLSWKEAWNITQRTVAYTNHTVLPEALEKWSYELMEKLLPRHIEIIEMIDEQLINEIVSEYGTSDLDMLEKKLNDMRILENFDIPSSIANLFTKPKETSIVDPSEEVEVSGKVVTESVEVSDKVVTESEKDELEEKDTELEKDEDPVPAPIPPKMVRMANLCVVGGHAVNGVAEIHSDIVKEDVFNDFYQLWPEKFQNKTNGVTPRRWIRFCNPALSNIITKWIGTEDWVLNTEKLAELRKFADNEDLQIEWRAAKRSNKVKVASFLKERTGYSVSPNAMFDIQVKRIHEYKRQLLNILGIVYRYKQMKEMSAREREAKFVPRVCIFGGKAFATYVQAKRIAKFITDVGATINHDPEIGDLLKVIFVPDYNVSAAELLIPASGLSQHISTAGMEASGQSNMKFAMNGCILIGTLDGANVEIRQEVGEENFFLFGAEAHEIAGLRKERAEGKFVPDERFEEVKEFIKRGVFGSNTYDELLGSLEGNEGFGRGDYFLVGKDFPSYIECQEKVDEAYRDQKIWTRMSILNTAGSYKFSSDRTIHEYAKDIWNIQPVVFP
Assay: Glc-1-P production, coupled phosphoglucomutase / Glc-6-P dehydrogenase (NADPH)
Format: biochemical
Conditions: 0.5 mM substrate, 0.5 mM inorganic phosphate, 50 mM sodium acetate pH 6.0, 37°C, 1 h; phosphorolysis

Row | SMILES | Glc-1-P production, coupled phosphoglucomutase / Glc-6-P dehydrogenase (NADPH)
1 | OC[C@H]1O[C@H](O[C@H]2[C@H](O)[C@@H](O)[C@@H](O[C@H]3[C@H](O)[C@@H](O)[C@@H](O[C@H]4[C@H](O)[C@@H](O)[C@@H](O[C@H]5[C@H](O)[C@@H](O)C(O)O[C@@H]5CO)O[C@@H]4CO)O[C@@H]3CO)O[C@@H]2CO)[C@H](O)[C@@H](O)[C@@H]1O (some centres unmarked) [G5, maltopentaose] | displayed high catalytic activity with G5, G6, G7, or dextrin to produce Glc-1-P
2 | OC[C@H]1O[C@H](O[C@H]2[C@H](O)[C@@H](O)[C@@H](O[C@H]3[C@H](O)[C@@H](O)[C@@H](O[C@H]4[C@H](O)[C@@H](O)[C@@H](O[C@H]5[C@H](O)[C@@H](O)[C@@H](O[C@H]6[C@H](O)[C@@H](O)C(O)O[C@@H]6CO)O[C@@H]5CO)O[C@@H]4CO)O[C@@H]3CO)O[C@@H]2CO)[C@H](O)[C@@H](O)[C@@H]1O (some centres unmarked) [G6, maltohexaose] | displayed high catalytic activity with G5, G6, G7, or dextrin to produce Glc-1-P

Source: paper PMC5417683, “Plastidial α-glucan phosphorylase 1 complexes with disproportionating enzyme 1 in Ipomoea batatas storage roots for elevating malto-oligosaccharide metabolism” (PLoS ONE, 2017)
